Measurements: PubChem BioAssay (NCI)
Several values for one entry are separate records, joined by “and”; a condition that tells them apart may be missing. Equal entries are not always repeated.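 Interpolation was linear, between the two tested concentrations surrounding the appropriate level; five concentrations were tested over 48 hours in 96-well plates. GI50 = concentration required for 50% inhibition of growth. The concentration for full growth arrest is given as TGI.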

Experiments:
Assay in all cases: NCI tumour cell line growth inhibition, 48 h
HOP-62 NSCLC = system: HOP-62 NSCLC
U251 CNS = system: U251 CNS
UO-31 renal = system: UO-31 renal
HCT-116 colon = system: HCT-116 colon
SK-OV-3 ovarian = system: SK-OV-3 ovarian
SK-MEL-5 melanoma = system: SK-MEL-5 melanoma
LOX IMVI melanoma = system: LOX IMVI melanoma
HS 578T breast = system: HS 578T breast
UACC-257 melanoma = system: UACC-257 melanoma
SN12C renal = system: SN12C renal

SMILES	GI50 (HOP-62 NSCLC)	TGI (HOP-62 NSCLC)	GI50 (U251 CNS)	TGI (U251 CNS)	GI50 (UO-31 renal)	TGI (UO-31 renal)	GI50 (HCT-116 colon)	TGI (HCT-116 colon)	GI50 (SK-OV-3 ovarian)	TGI (SK-OV-3 ovarian)	GI50 (SK-MEL-5 melanoma)	TGI (SK-MEL-5 melanoma)	GI50 (LOX IMVI melanoma)	TGI (LOX IMVI melanoma)	GI50 (HS 578T breast)	TGI (HS 578T breast)	GI50 (UACC-257 melanoma)	TGI (UACC-257 melanoma)	GI50 (SN12C renal)	TGI (SN12C renal)
CCCc1cc(=O)[nH]c(-n2nc(C)cc2C)n1	5.58 µM	> 100 µM	1.71 µM	> 100 µM	2.4 µM	> 100 µM	3.3 µM	67.3 µM	9.34 µM	> 100 µM	3.18 µM	47.6 µM	2.81 µM	> 100 µM	15 µM	> 100 µM	6.23 µM	40 µM	4.75 µM	> 100 µM
O=C(Cn1c(=O)c(-c2ccccc2)nc2ccccc21)Nc1ccc(F)cc1	49.8 µM	> 100 µM	48 µM	> 100 µM	> 100 µM	> 100 µM	24 µM	> 100 µM	64.8 µM	> 100 µM	7.38 µM	> 100 µM	> 100 µM	> 100 µM	29.9 µM	88.8 µM	> 100 µM	> 100 µM	77.5 µM	> 100 µM
COc1cc(NC(C)CCCN)c2ncccc2c1 (stereo not given)	43.6 µM and > 91.6 µM	> 100 µM	39 µM and 86.1 µM	> 100 µM	15.2 µM and 42.9 µM	57.8 µM and > 100 µM	34.6 µM and 75.8 µM	> 100 µM	–	> 100 µM	–	32.3 µM and 57.3 µM	–	> 100 µM	–	> 100 µM	11.3 µM and 30.2 µM	27.2 µM and 54.5 µM	41.4 µM and > 84.4 µM	> 100 µM
COc1ccc2c(c1)nnn1c3ncccc3c(N=O)c21	7.51 µM	21.5 µM	0.72 µM and 1.18 µM	31.3 µM and 12.9 µM	0.0757 µM and 0.347 µM	0.732 µM and 4.64 µM	0.06 µM	0.91 µM	1.68 µM and 2.94 µM	11.8 µM and 19.6 µM	5.01 µM and 11.7 µM	11.1 µM and 24.1 µM	0.799 µM and 0.552 µM	7.06 µM and 2.56 µM	1.17 µM and 11.5 µM	–	8.21 µM and 2.62 µM	30.8 µM and 13.6 µM	1.4 µM and 2.06 µM	8.1 µM and 9.82 µM
CC1(N)CCN(c2cccnc2NC(=O)c2nc(-c3ncccc3C(F)(F)F)cnc2N)CC1	37.5 µM	> 100 µM	21.8 µM	> 100 µM	16.6 µM	> 100 µM	13.5 µM	> 100 µM	7.86 µM	73.8 µM	18.3 µM	33 µM	21.5 µM	53.4 µM	38.5 µM	> 100 µM	18.1 µM	34.1 µM	16.2 µM	> 100 µM
O=C(Nc1cccc(-n2cc(-c3ccncc3)c(-c3ccc(Cl)c(O)c3)n2)c1)c1ccc(N2CCOCC2)c(C(F)(F)F)c1	9.38 µM	> 50 µM	1.85 µM	24.9 µM	2.6 µM	34.3 µM	2.87 µM	> 50 µM	20 µM	> 50 µM	2.47 µM	10.2 µM	1.64 µM	7.29 µM	1.85 µM	> 50 µM	6.3 µM	36.8 µM	22 µM	> 50 µM
CCCCC[C@H]1C/C=C2/C(=O)C=C[C@@H]2C/C=C\CCCC(=O)O[C@@H](CCCCC)C/C=C2/C(=O)C=C[C@@H]2C/C=C\CCCC(=O)O1	0.536 µM	1.29 µM	0.151 µM	0.473 µM	0.394 µM	0.75 µM	0.0896 µM	0.333 µM	0.824 µM	2.39 µM	0.414 µM	0.791 µM	0.0695 µM	0.217 µM	1.28 µM	10.1 µM	0.531 µM	1.3 µM	0.105 µM	0.796 µM
